Results as given in patent publication US10928398B2, “Method for double staining colocalized nuclear-markers in histological lymphoid or bone marrow tissue sample” (CORNELL UNIVERSITY, priority 2008, dated 2021).

Legend:
[1] = test system: Rb phosphorylation by Cdk4/6 at serine 807/811 (pS807/811Rb) in lymphoma cells; test: Double IHC PAX5/pS807/811Rb with image analysis of lymph node biopsies of a B cell lymphoma patient in a phase I trial; assay type: in vivo, human; conditions: day 21 of therapy, 84.08% before treatment
From the text: (§1) The double stained IHC slides were accessioned into the image analysis system and then loaded onto the machine in batches of 60. A robotic arm picked up each slide, one at a time, and loaded it onto the microscope. Via a motorized stage, the microscope moves and scans the slide, looking for tissue, the location of which varies slightly from slide to slide. Once it has found the tissue, the device scans the tissue and the camera records low resolution images. Using the scanned low resolution images, the inventor selected ten good areas for subsequent high resolution scanning and analysis. Numerous data points were then calculated for each of the ten areas per slide, and those data were averaged.
(§2) Since no counterstain was used in these slides, all identifiable cells are positive for at least one marker (e.g., in FIG. 3A, cells that express neither MUM1 nor pSRb are not visible). The characteristics used for the analysis (“classifiers”) were determined by a process whereby the inventor trained the software what was considered to be cells of each color. The software analyzed the high resolution images by first applying color parameters to decide if a nucleus was blue, red, or purple. It finds pixels within the appropriate range of color parameters as defined by hue, saturation, and intensity; objects too light or too dark, as determined by the classifiers, were not included in the analysis. […]

[2] = test system: Ki67 expression in lymphoma cells; test: Double IHC PAX5/Ki67 with image analysis of lymph node biopsies of a B cell lymphoma patient in a phase I trial; assay type: in vivo, human; conditions: day 21 of therapy, 97.52% prior to treatment
From the text: as §1, §2

[3] = test system: MM cells (MUM1 positive) expressing Ki67 or pSRb; test: Double IHC MUM1/Ki67 or MUM1/pSRb of bone marrow biopsies of multiple myeloma patients in a phase I/II trial; assay type: in vivo, human; conditions: for Effect on cycling of MM cells (Ki67, pSRb): MM patient bone marrow, after treatment for 8 days
Method: In hematopoietic cancer biopsies, the non-cancer hematopoietic and immune cells must be excluded. In this example, multiple myeloma (MM) cells were identified in biopsy samples with an anti-MUM1 antibody and a detection system yielding a red signal. Specificity of MUM1 for myeloma cells in MM biopsies is estimated at ˜99%, thus excluding non-MM cells from the analysis. Double IHC was performed to detect cell cycle molecules in situ in MM cells. Each slide was stained for MUM1 (above) using Bond™ Polymer AP Red Detection System (DS9305, Leica, Bannockburn, Ill.) to afford a red pigment, and for the cell cycle molecule with Blue Alkaline Phosphate Substrate Kit (Vector Laboratories, Burlingame, Calif.) to afford a blue pigment. The cell cycle molecules, including Ki67 and pSRb, are nuclear. With these particular chromogen systems, double staining yielded MM cells with either a red nuclear signal if the cell was not proliferating or a purple nuclear signal if the MM cells were proliferating (positive for the cell cycle molecule in question). Cells with a blue nuclear signal ([…]) were non MM cells (FIG. 3A) that were proliferating.
To compute the percentage of MM cells expressing various cell cycle molecules, purple (MUM1+/cell cycle molecule+) cells were manually counted as a percentage of purple cells plus red (MUM1+/cell cycle molecule negative) cells. This manual method of analysis can be performed with any standard microscope.
To increase the accuracy, the same slides were first loaded in batches of 60 into an image analysis system, which performs photographic digital scans of each slide. Using an automatic image analyzer, the number of cells with a purple nucleus and those with a red nucleus in a given area was determined. The counts were performed in triplicate. The percentage of MM cells in the proliferative stage represented by the cell cycle molecule targeted is the number of purple cells divided by the number of purple and red cells. […] The intensity of positive staining was scored in comparison to expression in B cells from serial sections of a single tonsil control slide, run in parallel with the marrow slides. […]
IHC was performed on 4 micron sections of paraffin-embedded bone marrow tissues using a Leica Microsystems (Bannockburn, Ill.) Bond Max automated immunostainer. MUM1 MM cells were detected using an anti-MUM1 mouse monoclonal antibody (Mab) (Dako, Carpinteria, Calif.) and the Bond™ Polymer AP Red Detection System (Leica). Simultaneous expression of other proteins was detected with monoclonal antibodies to Ki-67, cyclin D1, cyclin D2, cyclin D3, MCM2, MCM7, skp2, p16, p18, p21, p27, Rb, c-myc, Cdk4 and Cdk6 and polyclonal rabbit antisera to either pSer^807/811, pSer^608 or pSer^780 of human Rb. […]

[4] = test system: Myeloma; conditions: cited from earlier work
[5] = test system: relapsed MM; test: Time to progression of relapsed MM patients receiving high-dose Dex in prospective clinical trials; assay type: in vivo, human
From the text: High-dose pulsed dexamethasone (Dex) is one of the preferred treatments for relapsed MM patients and is currently the accepted gold standard against which investigational drugs are being tested. The predictors of outcome for relapsed patients while on Dexamthasone (Dex) treatment have not been well established. These predictors were prospectively evaluated using the Ki-67/MUM1 markers in patients with relapsed MM receiving Dex in consecutive, prospective clinical trials. Time to progression is defined as date of Dex initiation to date of progressive disease (PD). Sixteen patients with relapsed MM were evaluated.

SMILES: CC(=O)c1c(C)c2cnc(Nc3ccc(N4CCNCC4)cn3)nc2n(C2CCCC2)c1=O [PD-332991]
- pS807/811Rb found in % of lymphoma cells [1]: 2.14%
- Ki67 expression in % of lymphoma cells [2]: 23.13%
- MM patients showing similar efficacy ([3]; 11/11 MM patients): 100%
- Effect on cycling of MM cells (Ki67, pSRb) [3]: great efficacy
- Effect on cycling of MM cells (Ki67, pSRb) ([3]; listed as CDk4/6 inhibitor): no longer cycling
- Cycling of MM cells after cessation of drug ([3]; biopsies 6 days after cessation of drug administration): returned to cycling in percentages comparable to what was observed prior to treatment

SMILES: CC(C)C[C@H](NC(=O)[C@H](Cc1ccccc1)NC(=O)c1cnccn1)B(O)O [PS-341(bortezomib), bortezomib]
- Responsiveness, % of patients [4]: 30%

SMILES: C[C@@H]1C[C@H]2[C@@H]3CCC4=CC(=O)C=C[C@]4(C)[C@@]3(F)[C@@H](O)C[C@]2(C)[C@@]1(O)C(=O)CO [Dex, dexamethasone]
- Patients showing progressive disease ([5]; 16 patients with relapsed MM, n=9): 56%
- Median time to progressive disease ([5]; patients with progressive disease, from Dex initiation): 87 days
